Experiments:
Format in all cases: in vivo
[1] = test system: upland rice (Oryza sp., var. Tebonnet, RICE); experiment: Post-emerge test, crop safety; conditions: post-emerge, 14 days after application, rating scale 0-100
Procedure, shortened: (§1)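 Applied at 15–1000 g ai/ha from acetone in 187 l/ha spray volume. Post-emergence applications included 0.25% v/v non-ionic surfactant and reached plants sown 8–21 days before. Pre-emergence applications were incorporated by surface watering. Efficacy or crop damage was rated on a 0–100 scale after 14 days.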

[2] = test system: field corn (Zea mays L., var. Dekalb 535, CORN); experiment: Post-emerge test, crop safety; conditions: post-emerge, 14 days after application, rating scale 0-100
Procedure, shortened: as §1

[3] = test system: sicklepod (Cassia obtusifolia, CASOB); experiment: Post-emerge test, greenhouse herbicide activity screening; conditions: post-emerge, 14 days after application, rating scale 0-100
Procedure, shortened: (§2)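 Herbicidal damage is scored 0 (none) to 100 (complete plant death) two weeks after a simulated field spray. Rates span 15–1000 g ai/ha, delivered in acetone at 187 l/ha. For post-emergence treatments, plants have 2–3 leaves and the spray carries 0.25% v/v non-ionic surfactant.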

[4] = test system: velvetleaf (Abutilon theophrasti, ABUTH); experiment: as above; conditions: post-emerge, 14 days after application, rating scale 0-100
Procedure, shortened: as §2

[5] = test system: lambsquarters (Chenopodium album, CHEAL); experiment: as above; conditions: post-emerge, 14 days after application, rating scale 0-100
Procedure, shortened: as §2

[6] = test system: barnyardgrass (Echinochloa crus-galli, ECHCG); experiment: as above; conditions: post-emerge, 14 days after application, rating scale 0-100
Procedure, shortened: as §2

[7] = test system: redroot pigweed (Amaranthus retroflexus, AMARE); experiment: as above; conditions: post-emerge, 14 days after application, rating scale 0-100
Procedure, shortened: as §2

[8] = test system: green foxtail (Setaria viridis, SETVI); experiment: as above; conditions: post-emerge, 14 days after application, rating scale 0-100
Procedure, shortened: as §2

[9] = test system: ivyleaf morningglory (Ipomoea hederacea, IPOHE); experiment: as above; conditions: post-emerge, 14 days after application, rating scale 0-100
Procedure, shortened: as §2

[10] = test system: large crabgrass (Digitaria sanguinalis, DIGSA); experiment: as above; conditions: post-emerge, 14 days after application, rating scale 0-100
Procedure, shortened: as §2

[11] = test system: upland rice (Oryza sp., var. Tebonnet, RICE); experiment: Pre-emerge test, crop safety; conditions: pre-emerge, 14 days after application, scale 0-100
Procedure, shortened: as §2

[12] = test system: field corn (Zea mays L., var. Dekalb 535, CORN); experiment: Pre-emerge test, crop safety; conditions: pre-emerge, 14 days after application, scale 0-100
Procedure, shortened: as §2

[13] = test system: sicklepod (Cassia obtusifolia, CASOB); experiment: Pre-emerge test, greenhouse herbicide activity screening; conditions: pre-emerge, 14 days after application, scale 0-100
Procedure, shortened: as §1

[14] = test system: velvetleaf (Abutilon theophrasti, ABUTH); experiment: as above; conditions: pre-emerge, 14 days after application, scale 0-100
Procedure, shortened: as §1

[15] = test system: lambsquarters (Chenopodium album, CHEAL); experiment: as above; conditions: pre-emerge, 14 days after application, scale 0-100
Procedure, shortened: as §1

[16] = test system: johnsongrass (Sorghum halepense, SORHA); experiment: as above; conditions: pre-emerge, 14 days after application, scale 0-100
Procedure, shortened: as §1

[17] = test system: barnyardgrass (Echinochloa crus-galli, ECHCG); experiment: as above; conditions: pre-emerge, 14 days after application, scale 0-100
Procedure, shortened: as §1

[18] = test system: green foxtail (Setaria viridis, SETVI); experiment: as above; conditions: pre-emerge, 14 days after application, scale 0-100
Procedure, shortened: as §1

[19] = test system: ivyleaf morningglory (Ipomoea hederacea, IPOHE); experiment: as above; conditions: pre-emerge, 14 days after application, scale 0-100
Procedure, shortened: as §1

[20] = test system: large crabgrass (Digitaria sanguinalis, DIGSA); experiment: as above; conditions: pre-emerge, 14 days after application, scale 0-100
Procedure, shortened: as §1

[21] = test system: redroot pigweed (Amaranthus retroflexus, AMARE); experiment: as above; conditions: pre-emerge, 14 days after application, scale 0-100
Procedure, shortened: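 Rating: 0–100 visual injury, 14 DAA. Application: acetone, 187 l/ha, 15–1000 g ai/ha, flat-fan track sprayer with nozzle 40–45 cm above soil or canopy. Post-emerge runs used 0.25% v/v surfactant on 2–3 leaf plants.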

## COc1c(Cl)cc(F)c(-n2c(=O)cc(C(F)(F)F)n(C)c2=O)c1NC(=O)CCc1cc(C)ccc1C [2-132]
[1]; 63 g ai/ha
  RICE phytotoxicity rating (crop damage): 50
[1]; 250 g ai/ha
  RICE phytotoxicity rating (crop damage): 80
[2]; 63 g ai/ha
  CORN phytotoxicity rating (crop damage): 60
[2]; 250 g ai/ha
  CORN phytotoxicity rating (crop damage): 75
[3]; 63 g ai/ha
  CASOB phytotoxicity rating: 100
[3]; 250 g ai/ha
  CASOB phytotoxicity rating: 99
[4]; 63 g ai/ha
  ABUTH phytotoxicity rating: 100
[4]; 250 g ai/ha
  ABUTH phytotoxicity rating: 100
[5]; 63 g ai/ha
  CHEAL phytotoxicity rating: 100
[5]; 250 g ai/ha
  CHEAL phytotoxicity rating: 100
[6]; 63 g ai/ha
  ECHCG phytotoxicity rating: 20
[6]; 250 g ai/ha
  ECHCG phytotoxicity rating: 40
[7]; 63 g ai/ha
  AMARE phytotoxicity rating: 100
[7]; 250 g ai/ha
  AMARE phytotoxicity rating: 100
[8]; 63 g ai/ha
  SETVI phytotoxicity rating: 40
[8]; 250 g ai/ha
  SETVI phytotoxicity rating: 60
[9]; 63 g ai/ha
  IPOHE phytotoxicity rating: 100
[9]; 250 g ai/ha
  IPOHE phytotoxicity rating: 100
[10]; 63 g ai/ha
  DIGSA phytotoxicity rating: 10
[10]; 250 g ai/ha
  DIGSA phytotoxicity rating: 25
[11]; 63 g ai/ha
  phytotoxicity rating RICE (crop damage): 15
[11]; 250 g ai/ha
  phytotoxicity rating RICE (crop damage): 45
[12]; 63 g ai/ha
  phytotoxicity rating CORN (crop damage): 5
[12]; 250 g ai/ha
  phytotoxicity rating CORN (crop damage): 15
[13]; 63 g ai/ha
  phytotoxicity rating CASOB: 50
[13]; 250 g ai/ha
  phytotoxicity rating CASOB: 100
[14]; 63 g ai/ha
  phytotoxicity rating ABUTH: 100
[14]; 250 g ai/ha
  phytotoxicity rating ABUTH: 100
[15]; 63 g ai/ha
  phytotoxicity rating CHEAL: 100
[15]; 250 g ai/ha
  phytotoxicity rating CHEAL: 100
[16]; 63 g ai/ha
  phytotoxicity rating SORHA: 30
[16]; 250 g ai/ha
  phytotoxicity rating SORHA: 50
[17]; 63 g ai/ha
  phytotoxicity rating ECHCG: 30
[17]; 250 g ai/ha
  phytotoxicity rating ECHCG: 40
[18]; 63 g ai/ha
  phytotoxicity rating SETVI: 90
[18]; 250 g ai/ha
  phytotoxicity rating SETVI: 100
[19]; 63 g ai/ha
  phytotoxicity rating IPOHE: 20
[19]; 250 g ai/ha
  phytotoxicity rating IPOHE: 40
[20]; 63 g ai/ha
  phytotoxicity rating DIGSA: 60
[20]; 250 g ai/ha
  phytotoxicity rating DIGSA: 100
[21]; 63 g ai/ha
  phytotoxicity rating AMARE: 100
[21]; 250 g ai/ha
  phytotoxicity rating AMARE: 100

## COc1c(Cl)cc(Cl)c(-n2c(=O)cc(C(F)(F)F)n(C)c2=O)c1NC(=O)c1ccc2ccccc2c1 [2-144]
[1]; 63 g ai/ha
  RICE phytotoxicity rating (crop damage): 15
[1]; 250 g ai/ha
  RICE phytotoxicity rating (crop damage): 35
[2]; 63 g ai/ha
  CORN phytotoxicity rating (crop damage): 40
[2]; 250 g ai/ha
  CORN phytotoxicity rating (crop damage): 20
[3]; 63 g ai/ha
  CASOB phytotoxicity rating: 60
[3]; 250 g ai/ha
  CASOB phytotoxicity rating: 85
[4]; 63 g ai/ha
  ABUTH phytotoxicity rating: 85
[4]; 250 g ai/ha
  ABUTH phytotoxicity rating: 100
[6]; 63 g ai/ha
  ECHCG phytotoxicity rating: 0
[6]; 250 g ai/ha
  ECHCG phytotoxicity rating: 10
[7]; 63 g ai/ha
  AMARE phytotoxicity rating: 75
[7]; 250 g ai/ha
  AMARE phytotoxicity rating: 90
[8]; 63 g ai/ha
  SETVI phytotoxicity rating: 0
[8]; 250 g ai/ha
  SETVI phytotoxicity rating: 30
[9]; 63 g ai/ha
  IPOHE phytotoxicity rating: 60
[9]; 250 g ai/ha
  IPOHE phytotoxicity rating: 70
[10]; 63 g ai/ha
  DIGSA phytotoxicity rating: 0
[10]; 250 g ai/ha
  DIGSA phytotoxicity rating: 0
[11]; 63 g ai/ha
  phytotoxicity rating RICE (crop damage): 20
[11]; 250 g ai/ha
  phytotoxicity rating RICE (crop damage): 45
[12]; 63 g ai/ha
  phytotoxicity rating CORN (crop damage): 0
[12]; 250 g ai/ha
  phytotoxicity rating CORN (crop damage): 0
[13]; 63 g ai/ha
  phytotoxicity rating CASOB: 0
[13]; 250 g ai/ha
  phytotoxicity rating CASOB: 20
[14]; 63 g ai/ha
  phytotoxicity rating ABUTH: 70
[14]; 250 g ai/ha
  phytotoxicity rating ABUTH: 100
[15]; 63 g ai/ha
  phytotoxicity rating CHEAL: 100
[15]; 250 g ai/ha
  phytotoxicity rating CHEAL: 100
[16]; 63 g ai/ha
  phytotoxicity rating SORHA: 10
[16]; 250 g ai/ha
  phytotoxicity rating SORHA: 70
[17]; 63 g ai/ha
  phytotoxicity rating ECHCG: 20
[17]; 250 g ai/ha
  phytotoxicity rating ECHCG: 75
[18]; 63 g ai/ha
  phytotoxicity rating SETVI: 40
[18]; 250 g ai/ha
  phytotoxicity rating SETVI: 90
[19]; 63 g ai/ha
  phytotoxicity rating IPOHE: 0
[19]; 250 g ai/ha
  phytotoxicity rating IPOHE: 30
[20]; 63 g ai/ha
  phytotoxicity rating DIGSA: 20
[20]; 250 g ai/ha
  phytotoxicity rating DIGSA: 70
[21]; 63 g ai/ha
  phytotoxicity rating AMARE: 99
[21]; 250 g ai/ha
  phytotoxicity rating AMARE: 100
